# No end group written: not given here.
# Columns and labels:
# [1] = system: THP-1 cells; experiment: Resazurin-based cytotoxicity assay, THP-1; type: cell-based, human; details: 0.2 to 50 μM, 24 h
# Procedure: The cytotoxic properties of Lc-def and melittin as a control were investigated also by resazurin-based cell cytotoxicity assay. PBMCs and THP-1 cells were seeded in 96-well plates at 2 × 10^6 and 1 × 10^6 cells per well, respectively, in RPMI-1640 supplemented with 10% FBS, and kept in CO2-incubator. After 24 h serial two-fold dilutions of compounds in culture medium were then added to final concentrations from 0.2 to 50 μM. After 24 h of incubation with the peptides, resazurin (Sigma) was added at a final concentration of 0.7 mM, and the plates were incubated overnight (16 h). Fluorescent resorufin was registered using 535/595 filter at PlateReader AF2200 (Eppendorf, Hamburg, Germany). Untreated corresponding cells were used as negative controls. The cell viability was calculated as: cell viability (%) = (Fsample/Fcontrol) × 100%. The experiment was carried out twice in triplicate.
# [2] = system: CD8+ T cytotoxic cells; experiment: Cytokine response by multiplex xMAP, CD8+ T cytotoxic cells; type: cell-based, human; details: 2 µM, 24 h
# Procedure: Colorectal adenocarcinoma Caco-2 cell line (ATCC HTB-37) was cultured in complete DMEM/F12 (1:1) medium containing 10% fetal bovine serum (FBS, Gibco) and 1X antibiotic-antimycotic solution (1XAAS, Invitrogen, Waltham, MA, USA). The acute monocytic leukemia THP-1 line (ATCC TIB-202) was cultured in complete RPMI-1640 medium, containing 10% FBS, 1XAAS, and […]. THP-1 cells were differentiated into pro-inflammatory macrophages (Mφ1) with phorbol 12-myristate 13-acetate (Sigma-Aldrich) for 24 h and subsequently polarized with lipopolysaccharide from E. coli (Sigma-Aldrich) and rhIFN-γ (Sigma-Aldrich) for another 48 h according to previously reported protocol. All cells were cultured in a humidified CO2 incubator (5% CO2, 37 °C). Primary peripheral blood mononuclear cells (PBMCs) collected from a healthy donor were purchased from American Type Culture Collection (ATCC PCS-800-011). CD4^+ T-helper and CD8^+ T cytotoxic cells were isolated from PBMCs by magnetic separation with mouse anti-human CD4-PE (clone 13B8.2, Beckman Coulter Diagnostics, Pasadena, CA, USA) and CD8-PE (clone REA734, Miltenyi Biotec, Bergisch Gladbach, Germany), Anti-PE MicroBeads (Miltenyi Biotec), and LS Separation Columns (Miltenyi Biotec). Isolated CD4^+ and CD8^+ cells were expanded separately with Dynabeads™ Human T-Expander CD3/CD28 (Gibco, Waltham, MA, USA) in RPMI-1640 supplemented with 10% FBS, 1XAAS and 100 U/mL rh-IL-2 (Gibco). Regulatory CD4^+ FoxP3^+ T cells (Tregs) were isolated from PBMCs by magnetic separation with CD4^+CD25^+ Regulatory T Cell Isolation Kit, human (Miltenyi Biotec). Primary CD14^+ blood monocytes were isolated from PBMCs by adherence according to standard technique. Monocyte-derived mature dendritic cells (moDCs) were obtained from CD14^+ blood monocytes according to the previously reported protocol. Briefly, blood monocytes were incubated in complete RPMI-1640 medium, containing 10% FBS, 1XAAS, 800 U/mL rhGM-CSF (Sci-Store, Russia, Moscow) and 500 U/mL rhIL-4 (Sci-Store) for 3 days. Fresh complete RPMI-1640 medium with rhGM-CSF and rhIL-4 was added to the culture on day 3. On day 5, fresh complete RPMI-1640 containing 100 U/mL rhTNF-α (Sigma) as well as 800 U/mL rhGM-CSF and 500 U/mL rhIL-4 was added and the culture was incubated for another 4 days until full maturation.
# Caco-2 cells were seeded into the wells of a 48-well plate, coated with 0.1% bovine collagen (Sigma-Aldrich) for 24 h, 3 weeks before the experiment with complete DMEM/F12 (1:1) medium renewal every 2–3 days. Monocytes, moDCs, CD4^+ T-helper and CD8^+ T cytotoxic cells, Mφ1, and Regulatory CD4^+ FoxP3^+ T cells were seeded into the wells of 48-well plates in the complete RPMI-1640 medium supplemented with 10% Human AB serum (HABS, Capricorn Scientific, Ebsdorfergrund, Germany) and 1XAAS 24 h prior to the experiment; medium in Caco-2-containing wells was also replaced with the same medium. After 24 h, half of the medium in each well was replaced by fresh complete RPMI-1640 medium with 10% HABS, supplemented with 4 µM of Lc-def for the sample wells or fresh medium alone for the control wells. Cell cultures were kept in CO2-incubator (5% CO2, 37 °C) for another 24 h. Culture supernatants were collected 24 h later and stored at −70 °C degrees less than one month prior to the analytes assessment. […]
substance,measurement,setting,value
"Lc-def: defensin from lentil Lens culinaris seeds (UniProt:B3F051), recombinant, overexpressed in Escherichia coli (KTCENLSDSFKGPCIPDGNCNKHCKEKEHLLSGRCRDDFRCWCTRNC; disulfide (positions not given here); ends not checked; also: disulfide bonds present, pairing not given here; UniProt B3F051 28-74, looked up)",cytotoxic activity,[1],did not show any cytotoxic activity
same,EGF,[2],<1.95↓ pg/ml
same,Eotaxin,[2],<3.23↓ pg/ml
same,FGF-2,[2],0 pg/mL
same,FLT-3L,[2],<0.45↓ pg/ml
same,Fractalkine,[2],<23.19↓ pg/ml
same,G-CSF,[2],<2.57↓ pg/ml
same,GM-CSF,[2],<1.36↓ pg/ml
same,GROa,[2],<0.67↓ pg/ml
same,IFNa2,[2],<4.43↓ pg/ml
same,IFNg,[2],<1.99↓ pg/ml
same,IL-1RA,[2],<0.83↓ pg/ml
same,IL-1a,[2],9 pg/mL
same,IL-1b,[2],<18.72↓ pg/ml
same,IL-2,[2],<0.31↓ pg/ml
same,IL-3,[2],<0.48↓ pg/ml
same,IL-4,[2],<0.31↓ pg/ml
same,IL-5,[2],9.01 pg/mL
same,IL-6,[2],<0.30↓ pg/ml
same,IL-7,[2],<0.33↓ pg/ml
same,IL-8,[2],<0.49↓ pg/ml
same,IL-9,[2],<1.05↓ pg/ml
same,IL-10,[2],<0.68↓ pg/ml
same,IL-12 (p40),[2],<3.02↓ pg/ml
same,IL-12 (p70),[2],<1.48↓ pg/ml
same,IL-13,[2],<5.00↓ pg/ml
same,IL-15,[2],<1.45↓ pg/ml
same,IL-17A,[2],<1.55↓ pg/ml
same,IL-17E/IL-25,[2],<20.59↓ pg/ml
same,IL-17F,[2],<16.96↓ pg/ml
same,IL-18,[2],<0.35↓ pg/ml
same,IL-22,[2],<8.31↓ pg/ml
same,IL-27,[2],<8.55↓ pg/ml
same,IP-10,[2],<1.56↓ pg/ml
same,M-GSF,[2],<23.75↓ pg/ml
same,MCP-1,[2],<1.52↓ pg/ml
same,MCP-3,[2],<3.95↓ pg/ml
same,MDC,[2],<0.35↓ pg/ml
same,MIG,[2],<3.43↓ pg/ml
same,MIP-1a,[2],<1.76↓ pg/ml
same,MIP-1b,[2],<1.92↓ pg/ml
same,PDGF-AA,[2],<7.38↓ pg/ml
same,PDGF-AB/BB,[2],<9.75↓ pg/ml
same,RANTES,[2],366.74 pg/mL
same,TGF-a,[2],<0.66↓ pg/ml
same,TNFa,[2],<3.91↓ pg/ml
same,TNFb,[2],<0.73↓ pg/ml
same,VEGFa,[2],<1.27↓ pg/ml
same,effects on cytokine production,[2],No effects
same,sCD40L,[2],<6.66↓ pg/ml
